Experiments:
Aurora kinase B = Aurora kinase B (Homo sapiens, UniProt Q96GD4); test: Selectivity interaction (ActivX KiNativ screen (kinase selectivity in THP-1 cell lysates)) EUB0000639a AURKB; format: subcellular; conditions: lysate
[1] = biological target: T1, Mitogen-activated protein kinase 12 (Homo sapiens) (UniProt P53778); test: Selectivity interaction (Kinase panel (Invitrogen)) EUB0000639a MAPK12; conditions: at 200 nM
T1 sequence (whole entry): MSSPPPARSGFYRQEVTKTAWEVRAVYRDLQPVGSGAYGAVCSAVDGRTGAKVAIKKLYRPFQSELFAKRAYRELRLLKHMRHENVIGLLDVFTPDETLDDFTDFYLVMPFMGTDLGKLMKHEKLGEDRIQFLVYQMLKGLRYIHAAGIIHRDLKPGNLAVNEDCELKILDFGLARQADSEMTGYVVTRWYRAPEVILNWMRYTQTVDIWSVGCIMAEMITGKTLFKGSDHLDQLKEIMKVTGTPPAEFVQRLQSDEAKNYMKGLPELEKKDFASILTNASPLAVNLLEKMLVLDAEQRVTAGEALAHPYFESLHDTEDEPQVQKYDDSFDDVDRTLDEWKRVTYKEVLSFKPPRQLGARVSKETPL

[2] = biological target: T2, Phosphatidylinositol 4,5-bisphosphate 3-kinase catalytic subunit delta isoform (Homo sapiens) (UniProt O00329); test: Selectivity interaction (ActivX KiNativ screen (kinase selectivity in THP-1 cell lysates)) EUB0000639a PIK3CD; format: subcellular; conditions: lysate, at 0.04 µM
T2 sequence (whole entry): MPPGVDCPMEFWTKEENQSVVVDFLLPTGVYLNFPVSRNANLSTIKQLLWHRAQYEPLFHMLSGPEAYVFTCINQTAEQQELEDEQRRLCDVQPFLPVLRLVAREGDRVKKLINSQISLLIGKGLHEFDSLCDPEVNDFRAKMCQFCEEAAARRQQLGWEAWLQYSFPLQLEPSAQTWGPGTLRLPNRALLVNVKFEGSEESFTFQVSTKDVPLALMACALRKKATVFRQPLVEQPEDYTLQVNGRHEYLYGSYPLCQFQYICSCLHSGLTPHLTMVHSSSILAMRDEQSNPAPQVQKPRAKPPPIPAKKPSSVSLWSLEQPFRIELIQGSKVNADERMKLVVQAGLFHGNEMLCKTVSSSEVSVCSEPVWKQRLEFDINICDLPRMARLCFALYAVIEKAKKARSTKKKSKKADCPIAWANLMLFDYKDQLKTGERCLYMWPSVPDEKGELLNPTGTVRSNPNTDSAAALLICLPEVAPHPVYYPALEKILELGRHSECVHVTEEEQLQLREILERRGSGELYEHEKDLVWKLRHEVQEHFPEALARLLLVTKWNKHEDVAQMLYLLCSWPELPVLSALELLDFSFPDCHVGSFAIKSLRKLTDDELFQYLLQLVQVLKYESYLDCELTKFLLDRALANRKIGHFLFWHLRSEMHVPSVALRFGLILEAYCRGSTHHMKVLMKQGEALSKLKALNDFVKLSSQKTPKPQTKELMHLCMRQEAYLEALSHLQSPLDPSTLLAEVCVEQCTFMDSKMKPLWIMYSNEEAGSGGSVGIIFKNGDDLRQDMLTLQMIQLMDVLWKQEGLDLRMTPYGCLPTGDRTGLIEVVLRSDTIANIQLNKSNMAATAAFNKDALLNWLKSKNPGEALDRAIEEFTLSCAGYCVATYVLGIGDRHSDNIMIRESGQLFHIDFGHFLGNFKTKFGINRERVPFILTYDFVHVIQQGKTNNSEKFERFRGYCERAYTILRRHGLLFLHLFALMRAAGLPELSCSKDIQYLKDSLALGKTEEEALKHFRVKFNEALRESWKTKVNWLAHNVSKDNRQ

[3] = biological target: T3, Myosin-IIIb (Homo sapiens) (UniProt Q8WXR4); test: Selectivity interaction (KinomeScan (DiscoverX)) EUB0000695a MYO3B; conditions: at 100 nM
T3 sequence (whole entry): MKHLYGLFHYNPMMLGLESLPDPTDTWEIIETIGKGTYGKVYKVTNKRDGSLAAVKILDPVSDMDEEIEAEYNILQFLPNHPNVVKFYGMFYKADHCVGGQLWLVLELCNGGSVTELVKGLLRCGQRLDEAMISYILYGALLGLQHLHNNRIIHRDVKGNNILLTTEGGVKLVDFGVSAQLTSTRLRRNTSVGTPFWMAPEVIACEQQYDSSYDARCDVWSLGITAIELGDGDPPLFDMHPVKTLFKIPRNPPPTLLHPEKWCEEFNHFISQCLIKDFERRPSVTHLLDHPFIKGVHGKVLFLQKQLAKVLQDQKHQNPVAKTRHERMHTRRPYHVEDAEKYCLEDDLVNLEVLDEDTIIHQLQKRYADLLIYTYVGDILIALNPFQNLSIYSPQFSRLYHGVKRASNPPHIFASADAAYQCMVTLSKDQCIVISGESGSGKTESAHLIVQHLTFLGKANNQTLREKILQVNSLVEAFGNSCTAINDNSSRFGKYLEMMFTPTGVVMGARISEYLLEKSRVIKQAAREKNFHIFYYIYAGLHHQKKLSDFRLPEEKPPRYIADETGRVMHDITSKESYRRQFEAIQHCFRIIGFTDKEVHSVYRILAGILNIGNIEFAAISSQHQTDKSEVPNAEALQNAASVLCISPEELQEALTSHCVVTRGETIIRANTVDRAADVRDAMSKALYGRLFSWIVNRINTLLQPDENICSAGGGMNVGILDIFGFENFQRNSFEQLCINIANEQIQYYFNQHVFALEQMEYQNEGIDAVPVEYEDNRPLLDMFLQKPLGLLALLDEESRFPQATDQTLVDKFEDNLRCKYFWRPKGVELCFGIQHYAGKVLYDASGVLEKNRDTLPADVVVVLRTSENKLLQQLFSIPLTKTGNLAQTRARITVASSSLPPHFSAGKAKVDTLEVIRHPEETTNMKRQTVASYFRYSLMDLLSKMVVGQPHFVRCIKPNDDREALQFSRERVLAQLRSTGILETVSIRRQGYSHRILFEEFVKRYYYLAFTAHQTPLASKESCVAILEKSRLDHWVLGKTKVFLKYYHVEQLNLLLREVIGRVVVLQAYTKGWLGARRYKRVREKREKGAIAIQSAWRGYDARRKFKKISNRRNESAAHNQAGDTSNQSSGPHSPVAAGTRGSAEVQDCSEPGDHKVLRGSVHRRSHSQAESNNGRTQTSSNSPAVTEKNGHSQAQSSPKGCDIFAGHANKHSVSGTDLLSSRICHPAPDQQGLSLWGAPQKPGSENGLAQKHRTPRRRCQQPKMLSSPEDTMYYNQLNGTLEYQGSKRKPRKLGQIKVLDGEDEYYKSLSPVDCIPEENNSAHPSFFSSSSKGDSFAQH

[4] = biological target: Phosphatidylinositol 4,5-bisphosphate 3-kinase catalytic subunit beta isoform (Homo sapiens) (UniProt P42338); test: Selectivity interaction (ActivX KiNativ screen (ex vivo kinase selectivity in human PBMCs)) EUB0001619a PIK3CB; format: cell-based; conditions: PBMC, at 1 µM
Phosphatidylinositol 4,5-bisphosphate 3-kinase catalytic subunit beta isoform (Homo sapiens), sequence (P42338 whole entry, looked up, canonical isoform): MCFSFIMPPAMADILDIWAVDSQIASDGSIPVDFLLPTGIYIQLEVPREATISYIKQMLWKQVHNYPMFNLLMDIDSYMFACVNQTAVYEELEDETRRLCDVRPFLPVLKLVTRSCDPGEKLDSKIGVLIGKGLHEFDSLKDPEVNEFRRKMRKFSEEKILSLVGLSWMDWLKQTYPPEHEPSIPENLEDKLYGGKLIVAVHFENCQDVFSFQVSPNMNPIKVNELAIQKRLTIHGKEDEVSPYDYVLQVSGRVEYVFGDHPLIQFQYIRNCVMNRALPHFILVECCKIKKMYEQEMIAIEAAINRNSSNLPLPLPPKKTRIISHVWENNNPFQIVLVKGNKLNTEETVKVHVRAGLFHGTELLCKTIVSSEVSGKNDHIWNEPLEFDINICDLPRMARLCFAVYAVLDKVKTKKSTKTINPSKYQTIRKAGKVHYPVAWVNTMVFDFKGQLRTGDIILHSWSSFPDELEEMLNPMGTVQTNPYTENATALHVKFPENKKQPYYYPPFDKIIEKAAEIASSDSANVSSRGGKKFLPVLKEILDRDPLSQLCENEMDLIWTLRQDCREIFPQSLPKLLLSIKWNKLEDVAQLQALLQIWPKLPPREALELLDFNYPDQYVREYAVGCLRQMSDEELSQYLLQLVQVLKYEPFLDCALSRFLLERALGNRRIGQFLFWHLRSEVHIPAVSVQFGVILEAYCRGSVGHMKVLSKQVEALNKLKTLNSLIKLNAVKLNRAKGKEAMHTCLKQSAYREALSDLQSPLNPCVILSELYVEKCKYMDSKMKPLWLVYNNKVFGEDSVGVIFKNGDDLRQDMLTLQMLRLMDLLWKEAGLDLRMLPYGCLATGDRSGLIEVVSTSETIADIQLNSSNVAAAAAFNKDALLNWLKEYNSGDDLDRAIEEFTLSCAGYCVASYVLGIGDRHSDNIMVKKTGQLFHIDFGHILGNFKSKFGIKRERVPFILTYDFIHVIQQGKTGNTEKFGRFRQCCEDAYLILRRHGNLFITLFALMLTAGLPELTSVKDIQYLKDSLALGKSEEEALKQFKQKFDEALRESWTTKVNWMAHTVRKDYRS

Aurora kinase B, sequence (Q96GD4 whole entry): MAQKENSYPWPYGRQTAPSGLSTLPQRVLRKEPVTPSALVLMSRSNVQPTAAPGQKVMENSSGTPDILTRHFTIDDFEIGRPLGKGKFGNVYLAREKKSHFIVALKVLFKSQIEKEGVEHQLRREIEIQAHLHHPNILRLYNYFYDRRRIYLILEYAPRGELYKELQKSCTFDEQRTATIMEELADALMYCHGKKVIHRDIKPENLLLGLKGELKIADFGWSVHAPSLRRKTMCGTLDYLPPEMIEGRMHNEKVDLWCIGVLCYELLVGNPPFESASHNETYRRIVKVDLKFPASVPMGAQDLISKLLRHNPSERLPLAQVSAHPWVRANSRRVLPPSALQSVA

Work on `CC[C@@H]1[C@H](F)C(=O)N[C@@H]1COc1nccc2cc(C(N)=O)c(OC)cc12` [ZIMLOVISERTIB] yielded a % of inhibition (Aurora kinase B; at 0.01 µM) of 9.7%, a % of inhibition (Aurora kinase B; at 0.04 µM) of 3.4% and a % of inhibition (Aurora kinase B; at 0.2 µM) of 11.1%. The % of inhibition (Aurora kinase B; at 1 µM) was 32.2%, the % of inhibition (Aurora kinase B; at 5 µM) was 63.1% and the % of inhibition [1] was 7.12%. The % of inhibition [2] was 3.5%.

`Cc1cc(F)c(C(=O)Nc2cccc(-c3nncn3C(C)C)n2)cc1-n1cnc(C2CC2)c1` was tested, and the % of control [3] was 80%.

Molecule `N#Cc1cccc(-c2c[nH]c3ncnc(N4CCOCC4)c23)c1` has a % of inhibition [4] of -1%.

— ChEMBL document CHEMBL5465560, “Selectivity Literature for EUbOPEN Chemogenomic Library” (2024)
